Measured values from patent publication US3976663A, “Certain cyclopropane carboxylic acid esters of 2,3-dihyrobenzofuran-3-ols” (The Procter & Gamble Company, priority 1971, dated 1976).
Like-named read-outs stand apart in the source and are kept apart here.

Columns and labels:
[1] = test system: 11 other insects; test: Insect mortality tests, Example VI as a whole; type: in vivo
Description: (§1) 3-Coumaranyl chrysanthemate, 5-chloro-3-coumaranyl chrysanthemate, 5-methoxy-3-coumaranyl chrysanthemate, and natural pyrethrum, respectively, were dissolved in acetone and dispersed in distilled water with Triton X-100 emulsifier. The samples were applied for a 10 second period to houseflies retained in a 2 inch × 5 inch diameter screened cage. The spray is applied from the Water's vertical spray tower operating at 10 p.s.i. and discharging about 30 ml. of material per minute through an atomizer. The spray descends through an 8 inch stainless steel cylinder to test insects below the atomizer. The insects were retained in the sprayed cages for mortality observations.
(§2) All test species except the webbing clothes moth larvae were sprayed in the Water's vertical spray tower as described in Example IV. For the fabric tests, a two inch square area of wool fabric was dipped in the test formulations.

[2] = Mammalian toxicity, LD50 (rat); settings: in vivo
[3] = test system: houseflies; test: Residual activity against houseflies on treated panels (Example V); type: in vivo; settings: 100 milligrams per square foot, one hour exposure
From the text: (§3) 3-Coumaranyl chrysanthemate and natural pyrethrum, respectively, were formulated in deodorized kerosene to give a deposit rate of 100 milligrams per square foot of area for residual evaluation against houseflies and 200 and 400 milligrams per square foot of area for residual evaluation against German cockroaches. The formulations were uniformly applied at the rate of 8 milliliters/sq.ft. on unpainted plywood and 3.5 milliliters/sq.ft. on vinyl asbestos with a camel hair brush. Adult insects were exposed to each treated panel for one hour (houseflies) or two hours (cockroaches), transferred to clean cages, and held for mortality counts. The same treated panels were used for re-exposures after the aging period indicated.

[4] = test system: Webbing clothes moth larvae; test: Insect mortality test, wool fabric dipped in test formulation (Example VI); type: in vivo; settings: 0.05 + 0.2 synergist (piperonyl butoxide) % W/V, 7 days
From the text: as §2

[5] = test system: houseflies; test: Housefly mortality tests, spray tower (Example IV); type: in vivo; settings: for % Mortality (24 hr.): 10 second spray; for housefly mortality compared with the chrysanthemates of Table 1: equivalent amount in the test of Example IV
Description: as §1

[6] = test system: German cockroaches; test: Residual activity against cockroaches on treated panels (Example V); type: in vivo; settings: Blattella germanica, 48 h
From the text: as §3

[7] = test system: Mexican Bean Beetle; test: Insect mortality test, spray tower (Example VI); type: in vivo; settings: 0.005 + 0.02 synergist (piperonyl butoxide) % W/V, 2 days
Description: as §1, §2

[8] = test system: Pea Aphid; test: Insect mortality test, spray tower (Example VI); type: in vivo; settings: 0.005 + 0.02 synergist (piperonyl butoxide) % W/V, 2 days
Description: as §1, §2

[9] = test system: Adult mosquito; test: Insect mortality test, spray tower (Example VI); type: in vivo; settings: 0.05 + 0.2 synergist (piperonyl butoxide) % W/V, 1 day
Description: as §1, §2

[10] = test system: Adult rice weevils; test: Insect mortality test, spray tower (Example VI); type: in vivo; settings: 0.05 + 0.2 synergist (piperonyl butoxide) % W/V, 3 days
Description: as §1, §2

[11] = test system: Black carpet beetle larvae; test: Insect mortality test, spray tower (Example VI); type: in vivo; settings: 0.05 + 0.2 synergist (piperonyl butoxide) % W/V, 7 days
Description: as §1, §2

[12] = test system: German Cockroach; test: Insect mortality test, spray tower (Example VI); type: in vivo; settings: 0.05 + 0.2 synergist (piperonyl butoxide) % W/V, 2 days
Description: as §1, §2

[13] = test system: Adult saw toothed grain beetles; test: Insect mortality test, spray tower (Example VI); type: in vivo; settings: 0.05 + 0.2 synergist (piperonyl butoxide) % W/V, 3 days
Description: as §1, §2

[14] = test system: Adult stable flies; test: Insect mortality test, spray tower (Example VI); type: in vivo; settings: 0.05 + 0.2 synergist (piperonyl butoxide) % W/V, 1 day
Description: as §1, §2

[15] = test system: Mite; test: Insect mortality test, spray tower (Example VI); type: in vivo; settings: 0.05 + 0.2 synergist (piperonyl butoxide) % W/V, 5 days
Description: as §1, §2

[16] = test system: Southern Armyworm; test: Insect mortality test, spray tower (Example VI); type: in vivo; settings: 0.05 + 0.2 synergist (piperonyl butoxide) % W/V, 2 days
Description: as §1, §2

[17] = 0.0025 + 0.025 PB (piperonyl butoxide) % W/V
[18] = Musca domestica, topical, 24 h, read-out: % Mortality (24 hr.)
[19] = 0.005 + 0.05 PB (piperonyl butoxide) % W/V

In the case of `CC(C)=CC1C(C(=O)OC2COc3ccccc32)C1(C)C` (racemic) [Example I, (±) cis,trans-3-coumaranyl chrysanthemate], the “effectiveness against 11 other insects” value [1] is reported as “effective”, the LD50 [2] is reported as greater than 7570 mg/kg and the “% Mortality (24 hr.)” value ([3]; Plywood, age of residue 1 day) is reported as 100%. For the same compound, the “% Mortality (24 hr.)” value ([3]; Plywood, age of residue 3 days) was 98%, the “% Mortality (24 hr.)” value ([3]; Plywood, age of residue 7 days) was 83% and the “% Mortality (24 hr.)” value ([3]; Vinyl, age of residue 1 day) was 100%. For the same compound, the “% Mortality (24 hr.)” value ([3]; Vinyl, age of residue 3 days) was 100%, the “% Mortality (24 hr.)” value ([3]; Vinyl, age of residue 7 days) was 59% and the “% Mortality (days)” value [4] was 100%. The “% Mortality (24 hr.)” value ([5]; 0.00125 + 0.0125 PB (piperonyl butoxide) % W/V) was 28%, the “% Mortality (24 hr.)” value [5, 17] was 93% and the mortality at 0.00125 % strength [5, 18] was 5%. It also gave a mortality at 0.0025 % strength [5, 18] of 6%, a mortality at 200 mg/sq ft ([6]; read-out: % Mortality (48 hrs.), Plywood, 200 milligrams per sq. ft., age of residue 1 day, two hours exposure) of 85% and a mortality at 200 mg/sq ft ([6]; read-out: % Mortality (48 hrs.), Plywood, 200 milligrams per sq. ft., age of residue 3 days, two hours exposure) of 83%. For the same compound, the mortality at 200 mg/sq ft ([6]; read-out: % Mortality (48 hrs.), Plywood, 200 milligrams per sq. ft., age of residue 7 days, two hours exposure) was 93%, the mortality at 200 mg/sq ft ([6]; read-out: % Mortality (48 hrs.), Plywood, 200 milligrams per sq. ft., age of residue 14 days, two hours exposure) was 85% and the mortality at 400 mg/sq ft ([6]; read-out: % Mortality (48 hrs.), Plywood, 400 milligrams per sq. ft., age of residue 1 day, two hours exposure) was 83%. It also gave a mortality at 400 mg/sq ft ([6]; read-out: % Mortality (48 hrs.), Plywood, 400 milligrams per sq. ft., age of residue 3 days, two hours exposure) of 83%, a mortality at 400 mg/sq ft ([6]; read-out: % Mortality (48 hrs.), Plywood, 400 milligrams per sq. ft., age of residue 7 days, two hours exposure) of 90% and a mortality at 400 mg/sq ft ([6]; read-out: % Mortality (48 hrs.), Plywood, 400 milligrams per sq. ft., age of residue 14 days, two hours exposure) of 73%. It also gave a mortality at 200 mg/sq ft ([6]; read-out: % Mortality (48 hrs.), Vinyl, 200 milligrams per sq. ft., age of residue 1 day, two hours exposure) of 100%, a mortality at 200 mg/sq ft ([6]; read-out: % Mortality (48 hrs.), Vinyl, 200 milligrams per sq. ft., age of residue 3 days, two hours exposure) of 95% and a mortality at 200 mg/sq ft ([6]; read-out: % Mortality (48 hrs.), Vinyl, 200 milligrams per sq. ft., age of residue 7 days, two hours exposure) of 70%. The mortality at 200 mg/sq ft ([6]; read-out: % Mortality (48 hrs.), Vinyl, 200 milligrams per sq. ft., age of residue 14 days, two hours exposure) was 20%, the mortality at 400 mg/sq ft ([6]; read-out: % Mortality (48 hrs.), Vinyl, 400 milligrams per sq. ft., age of residue 1 day, two hours exposure) was 100% and the mortality at 400 mg/sq ft ([6]; read-out: % Mortality (48 hrs.), Vinyl, 400 milligrams per sq. ft., age of residue 3 days, two hours exposure) was 100%. For the same compound, the mortality at 400 mg/sq ft ([6]; read-out: % Mortality (48 hrs.), Vinyl, 400 milligrams per sq. ft., age of residue 7 days, two hours exposure) was 100%, the mortality at 400 mg/sq ft ([6]; read-out: % Mortality (48 hrs.), Vinyl, 400 milligrams per sq. ft., age of residue 14 days, two hours exposure) was 83% and the “% Mortality (days)” value [7] was 80%. For the same compound, the “% Mortality (days)” value [8] was 65%, the “% Mortality (days)” value [9] was 100% and the “% Mortality (days)” value [10] was 100%. The “% Mortality (days)” value [11] was 40%, the “% Mortality (days)” value [12] was 30% and the “% Mortality (days)” value [13] was 100%. For the same compound, the “% Mortality (days)” value [14] was 100%, the “% Mortality (days)” value [15] was 69% and the “% Mortality (days)” value [16] was 70%.

With `CC(C)=CC1C(C(=O)OC2COc3ccc(Cl)cc32)C1(C)C` (racemic) [Example II, (±) cis,trans-5-chloro-3-coumaranyl chrysanthemate] the “% Mortality (24 hr.)” value [5, 17] was 56%, the “% Mortality (24 hr.)” value [5, 19] was 99% and the mortality at 0.005 % strength [5, 18] was 5%.

With `COc1ccc2c(c1)C(OC(=O)C1C(C=C(C)C)C1(C)C)CO2` (racemic) [Example III, (±) cis, trans-5-methoxy-3-coumaranyl chrysanthemate] the “% Mortality (24 hr.)” value [5, 19] was 57%, the “% Mortality (24 hr.)” value ([5]; 0.01 + 0.1 PB (piperonyl butoxide) % W/V) was 100% and the mortality at 0.01 % strength [5, 18] was 0%.

With `CC1(C)C(C(=O)OC2COc3ccccc32)C1(C)C` (stereo not drawn) [3-coumaranyl 2,2,3,3-tetramethylcyclopropanecarboxylate] the “housefly mortality compared with the chrysanthemates of Table 1” value [5] was “equivalent results”.

For `CC1(C)C(C=C2CCCC2)C1C(=O)OC1COc2ccccc21` (stereo not drawn) [3-coumaranyl 3-(2,2-tetramethyleneethenyl)-2-dimethylcyclopropanecarboxylate], the “housefly mortality compared with the chrysanthemates of Table 1” value [5] was “equivalent results”.

For `CC1(C)C(C(=O)OC2COc3ccc(Cl)cc32)C1(C)C` (stereo not drawn) [5-chloro-3-coumaranyl 2,2,3,3-tetramethylcyclopropanecarboxylate], the “housefly mortality compared with the chrysanthemates of Table 1” value [5] was “equivalent results”.

In the case of `CC1(C)C(C=C2CCCC2)C1C(=O)OC1COc2ccc(Cl)cc21` (stereo not drawn) [5-chloro-3-coumaranyl 3-(2,2-tetramethyleneethenyl)-2,2-dimethylcyclopropanecarboxylate], the “housefly mortality compared with the chrysanthemates of Table 1” value [5] is reported as “equivalent results”.

With `COc1ccc2c(c1)C(OC(=O)C1C(C)(C)C1(C)C)CO2` (stereo not drawn) [5-methoxy-3-coumaranyl 2,2,3,3-tetramethylcyclopropanecarboxylate] the “housefly mortality compared with the chrysanthemates of Table 1” value [5] was “equivalent results”.

With `COc1ccc2c(c1)C(OC(=O)C1C(C=C3CCCC3)C1(C)C)CO2` (stereo not drawn) [5-methoxy-3-coumaranyl 3-(2,2-tetramethyleneethenyl)-2,2-dimethylcyclopropanecarboxylate] the “housefly mortality compared with the chrysanthemates of Table 1” value [5] was “equivalent results”.

With `CC1(C)C(C(=O)OC2COc3ccc([N+](=O)[O-])cc32)C1(C)C` (stereo not drawn) [5-nitro-3-coumaranyl 2,2,3,3-tetramethylcyclopropanecarboxylate] the “housefly mortality compared with the chrysanthemates of Table 1” value [5] was “equivalent results”.

With `CC1(C)C(C=C2CCCC2)C1C(=O)OC1COc2ccc([N+](=O)[O-])cc21` (stereo not drawn) [5-nitro-3-coumaranyl 3-(2,2-tetramethyleneethenyl)-2-dimethylcyclopropanecarboxylate] the “housefly mortality compared with the chrysanthemates of Table 1” value [5] was “equivalent results”.

In the case of `CC(C)=CC1C(C(=O)OC2COc3ccc([N+](=O)[O-])cc32)C1(C)C` (stereo not drawn) [5-nitro-3-coumaranyl chrysanthemate], the “housefly mortality compared with the chrysanthemates of Table 1” value [5] is reported as “equivalent results”.
